Calls of active or inactive are those of the source. The rule behind the calls is not given here.
Key:
T98G [1] = experiment: Down regulation of androgen receptor activity in AR-overexpressing human T98G cells at 100 nM measured after 12 hrs by Western blotting analysis; type: functional, cell-based
T98G [2] = experiment: Down regulation of androgen receptor activity in AR-overexpressing human T98G cells at 50 nM measured after 12 hrs by Western blotting analysis; type: functional, cell-based
[3] = biological target: Heat shock protein beta-1 (Homo sapiens) (UniProt P04792); experiment: Inhibition of HSP27 alpha-crystallin (unknown origin) activity assessed as DTT-induced insulin B chain aggregation at 10 uM measured upto 2 hrs by microplate reader-based HSP27 chaperone activity assay
[4] = biological target: Heat shock protein beta-1 (Homo sapiens) (UniProt P04792); experiment: Inhibition of HSP27 chaperone activity in AR-overexpressing human U87 cells assessed as down regulation of androgen receptor level at 25 to 100 nM by Western blotting analysis; type: cell-based; conditions: dose lower […], dose upper 100.0 nM
[5] = biological target: Heat shock protein beta-1 (Homo sapiens) (UniProt P04792); experiment: Inhibition of HSP27 chaperone activity in AR-overexpressing human T98G cells assessed as down regulation of androgen receptor level at 25 to 100 nM by Western blotting analysis; type: cell-based; conditions: dose lower […], dose upper 100.0 nM
[6] = biological target: Heat shock protein beta-1 (Homo sapiens) (UniProt P04792); experiment: Inhibition of HSP27 chaperone activity in human T98G cells expressing AR-V7 mutant assessed as down regulation of androgen receptor level at 25 to 100 nM by Western blotting analysis; type: cell-based; conditions: dose lower […], dose upper 100.0 nM
[7] = biological target: Heat shock protein beta-1 (Homo sapiens) (UniProt P04792); experiment: Inhibition of HSP27 in AR-overexpressing human U87 cells assessed as androgen receptor degradation by measuring decrease in free cytoplasmic AR level at 50 nM measured after 12 hrs by immunofluorescence assay; type: cell-based
[8] = biological target: Heat shock protein beta-1 (Homo sapiens) (UniProt P04792); experiment: Inhibition of HSP27 in AR-overexpressing human T98G cells assessed as androgen receptor degradation by measuring decrease in free cytoplasmic AR level at 50 nM measured after 12 hrs by immunofluorescence assay; type: cell-based
U-87MG ATCC = experiment: Effect on nucleus AR level in AR-overexpressing human U87 cells at 50 nM measured after 12 hrs by immunofluorescence assay; type: functional, cell-based
T98G [9] = experiment: Effect on nucleus AR level in AR-overexpressing human T98G cells at 50 nM measured after 12 hrs by immunofluorescence assay; type: functional, cell-based
U-87 MG [10] = experiment: Antitumor activity against human U87 cells xenografted in mouse assessed as decrease in tumor size at 20 mg/kg, ip administered weekly 3 times for 14 days; type: functional, organism-based; conditions: U-87MG ATCC, time 14.0 day
[11] = Toxicity in mouse xenografted with human U87 cells assessed as body weight at 20 mg/kg, ip administered weekly 3 times for 14 days; type: organism-based, U-87MG ATCC; conditions: in vivo, 336 h, time 14 day
U-87 MG [12] = experiment: In vivo antitumor activity against human U87 cells xenografted in mouse assessed as decrease in tumor weight at 20 mg/kg, ip administered weekly 3 times for 14 days relative to control; type: functional, organism-based; conditions: U-87MG ATCC, time 14.0 day
U-87 MG [13] = experiment: In vivo antitumor activity against human U87 cells xenografted in mouse assessed as decrease in AR protein level in tumor at 20 mg/kg, ip administered weekly 3 times for 14 days relative to control; type: functional, organism-based; conditions: U-87MG ATCC, time 14.0 day
[14] = Apparent half life in mouse plasma at 20 mg/kg, ip measured for 24 hrs by LC-MS/MS analysis; type: ADME, organism-based; conditions: in vivo, ip, 20 mg/kg, 24 h
[15] = Cmax in mouse plasma at 20 mg/kg, ip measured for 24 hrs by LC-MS/MS analysis; type: ADME, organism-based; set-up: time 24 hrs, dose 20 mg/kg, route ip; conditions: in vivo
[16] = AUC (0 to 24 hrs) in mouse plasma at 20 mg/kg, ip measured for 24 hrs by LC-MS/MS analysis; type: ADME, organism-based; set-up: dose 20 mg/kg, time 24 hrs, route ip; conditions: in vivo
[17] = AUC (0 to infinity) in mouse plasma at 20 mg/kg, ip measured for 24 hrs by LC-MS/MS analysis; type: ADME, organism-based; set-up: time 24 hrs, dose 20 mg/kg, route ip; conditions: in vivo
[18] = Apparent Half life in mouse brain at 20 mg/kg, ip measured for 24 hrs by LC-MS/MS analysis; type: ADME, organism-based; conditions: in vivo
[19] = Cmax in mouse brain at 20 mg/kg, ip measured for 24 hrs by LC-MS/MS analysis; type: ADME, organism-based; set-up: dose 20 mg/kg, time 24 hrs, route ip
[20] = AUC (0 to 24 hrs) in mouse brain at 20 mg/kg, ip measured for 24 hrs by LC-MS/MS analysis; type: ADME, organism-based; set-up: dose 20 mg/kg, time 24 hrs, route ip; conditions: in vivo
[21] = AUC (0 to infinity) in mouse brain at 20 mg/kg, ip measured for 24 hrs by LC-MS/MS analysis; type: ADME, organism-based; set-up: time 24 hrs, dose 20 mg/kg, route ip; conditions: in vivo
[22] = Toxicity in C57BL/6 mouse assessed as body weight change at 100 mg/kg, ip treated for 10 days; type: organism-based; conditions: in vivo, 240 h, time 10 day
[23] = Toxicity in C57BL/6 mouse assessed as kidney histology by measuring necrosis/glomerular atrophy at 100 mg/kg, ip treated for 10 days by hematoxylin and eosin staining based assay; type: organism-based; conditions: in vivo, 240 h, time 10 day
[24] = Toxicity in C57BL/6 mouse assessed as spleen histology by measuring intact/distinct spleen-follical at 100 mg/kg, ip treated for 10 days by hematoxylin and eosin staining based assay; type: organism-based; conditions: in vivo, 240 h, time 10 day
[25] = Toxicity in C57BL/6 mouse assessed as lung histology by measuring injury/fibrosis at 100 mg/kg, ip treated for 10 days by hematoxylin and eosin staining based assay; type: organism-based; conditions: in vivo, 240 h, time 10 day
[26] = Toxicity in C57BL/6 mouse assessed as liver histology at 100 mg/kg, ip treated for 10 days by hematoxylin and eosin staining based assay; type: organism-based; conditions: in vivo, 240 h, time 10 day
[27] = Toxicity in C57BL/6 mouse assessed as heart histology by measuring infarcts/inflammatory cell infiltration at 100 mg/kg, ip treated for 10 days by hematoxylin and eosin staining based assay; type: organism-based; conditions: in vivo, 240 h, time 10 day
[28] = Toxicity in C57BL/6 mouse assessed as physical condition at 100 mg/kg, ip treated for 10 days; type: organism-based; conditions: in vivo, 240 h, time 10 day

Sequence of Heat shock protein beta-1 (Homo sapiens) (P04792 whole entry): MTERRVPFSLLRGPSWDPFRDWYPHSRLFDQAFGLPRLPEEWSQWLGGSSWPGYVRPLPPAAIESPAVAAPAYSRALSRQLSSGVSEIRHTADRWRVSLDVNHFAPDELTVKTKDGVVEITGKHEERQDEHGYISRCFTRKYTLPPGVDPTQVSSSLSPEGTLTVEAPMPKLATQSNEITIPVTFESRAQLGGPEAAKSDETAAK

inhibition [3] | inhibition [4] | inhibition [5] | inhibition [6] | inhibition [7] | inhibition [8] | t1/2 [14] [h] | Cmax [15] [ng/mL] | AUC [16] [ng·h/mL] | AUC [17] [ng·h/mL] | t1/2 [18] [h] | AUC [20] [µg·h/g] | Structure (SMILES) | Activity (T98G [1]) | Activity (T98G [2]) | Activity (U-87MG ATCC) | Activity (T98G [9]) | Activity (U-87 MG [10]) | Activity [11] | Activity (U-87 MG [12]) | Activity (U-87 MG [13]) | further results
Active | Active | Active | Active | Active | Active | 6.28 | 30620 | 61920 | 80840 | 8.66 | 1.34 | COc1ccc(OC)c(COc2cc(NC(=O)c3ccc4ccccc4c3)ccc2NS(C)(=O)=O)c1 | Active | Active | inactive | inactive | Active | Non-Toxic | Active | Active | Cmax ([19]; in vivo, 24 h): 0.76 µg/g; AUC [21]: 2.44 µg·h/g; Activity [22]: Non-Toxic; Activity [23]: Non-Toxic; Activity [24]: Non-Toxic; Activity [25]: Non-Toxic; Activity [26]: Non-Toxic; Activity [27]: Non-Toxic; Activity [28]: Non-Toxic
Active | Active | Active | Active | Active | Active | 1.49 | 20200 | 20020 | 32130 | 0.57 | 0.31 | COc1ccc(OC)c(COc2cc(NC(=O)c3ccc4c(c3)OCO4)ccc2NS(C)(=O)=O)c1 | Active | Active | inactive | inactive | Active | Non-Toxic | Active | Active | Cmax ([19]; brain, read-out: Cmax): 0.68 µg/g; AUC [21]: 0.62 µg·h/g; Activity [22]: Non-Toxic; Activity [23]: Non-Toxic; Activity [24]: Non-Toxic; Activity [25]: Non-Toxic; Activity [26]: Non-Toxic; Activity [27]: Non-Toxic; Activity [28]: Non-Toxic
